From US3961054A, “Combatting dandruff with mercapto quinoline N-oxides” (Ciba-Geigy Corporation, priority 1974, dated 1976)
≈ marks a conversion by molar mass, not a printed value. Where “and” joins values, the source holds several entries; their conditions need not be identical. Equal values may be shown once. Where a name gives a salt, the structure may show the parent alone. Read-outs that look alike come from different tables or passages of the source.

What was measured:
P. Ovale [1] = assay: Microbiological activity against P. Ovale, agar serial dilution (Table 1); assay type: cell-based, P. Ovale (ATCC 14521); conditions: for MIC: 96 h, read-out: Minimum Inhibitory Concentration (MIC) against P. Ovale
Method: The microbiological activities of the zinc and sodium complexes of 2-mercapto-quinoline-N-oxide (MQNO) against P. Ovale were compared with the sodium and zinc salts of pyridinethione-N-oxide (PTO) and other conventional soapbacteriostats. P. Ovale is a microorganism associated with dandruff conditions.
Equal amounts of the respective compounds were dissolved in methyl cellosolve, dimethylformamide, or water, serially diluted in ten fold sequence and incorporated into plates of molten Agar. The plates were allowed to solidify, were then inoculated with P. Ovale (ATCC 14521), incubated at 27°C. for 4 days and inspected for growth.

Aspergillus oryzae = assay: Antimicrobial spectrum, MIC, Aspergillus oryzae (Table 3); assay type: cell-based, Aspergillus oryzae ATCC 10196; conditions: for MIC: Aspergillus oryzae
Method: (§1) Equivalent amounts of ZnMQNO, NaMQNO, ZnPTO and NaPTO were solubilized in methyl cellosolve (PTO) and dimethyl formamide (MQNO). Ten fold serial dilutions were prepared employing additional solvent and equal aliquots pipetted into molten (50°C) agar support media. Nutrient Agar was employed for all bacteria and Mycological Agar was employed for the fungi and dermatophyte. After preparing pour plates for the bacteria and streaks for the fungi and dermatophyte, the plates were incubated (37°C and 27°C, respectively) and observed for growth.

Proteus vulgaris = assay: Antimicrobial spectrum, MIC, Proteus vulgaris (Table 3); assay type: cell-based; conditions: ATCC9920, ATCC 9920, Nutrient Agar, 37°C, ten fold dilutions, read-out: Minimum Inhibitory Concentration, Proteus vulgaris
Method: as §1

Staph. aureus = assay: Antimicrobial spectrum, MIC, Staph. aureus (Table 3); assay type: cell-based, Staph. aureus ATCC 6538; conditions: Staphylococcus aureus
Method: as §1

[2] = tested on: Gram-positive and negative bacteria, fungi and dermatophytes; assay: Antimicrobial spectrum, overall (Example 8); assay type: cell-based; conditions: in words, from Table 3
Method: as §1

[3] = Relative solubility (statement in words); assay type: physicochemical; conditions: explains smaller zone size in agar
T. interdigitale = assay: Antimicrobial spectrum, MIC, T. interdigitale (Table 3); assay type: cell-based, Trichophyton interdigitale ATCC 9533; conditions: Trichophyton interdigitale, ATCC9533, read-out: Minimum Inhibitory Concentration, T. interdigitale
Method: as §1

P. Ovale [4] = assay: Substantivity/activity in calf skin, zone of inhibition against P. Ovale (Table 2); assay type: cell-based; design: unit not given here; conditions: 2% in shampoo, replicate plates 1-4, 27°C, 4 days
Description: The substantivity/activity of the zinc complex of 2-mercapto-quinoline-N-oxide of the invention in calf-skin were compared with the zinc salt of pyridinethione-N-oxide in the following manner. ZnMQNO and ZnPTO were incorporated by blending on a 3-roll mill in amounts of 1% and 2% by weight into a non-bacteriostatic paste shampoo of the following composition.
Calf skin specially prepared by the method of Vinson IN VITRO TESTS FOR MEASURING ANTIBACTERIAL ACTIVITY OF TOILET SOAP AND DETERGENT BARS by L. J. Vinson, E. L. Ambye, A. G. Bennet, Journal of Pharmaceutical Sciences, Vol. 50, P. 10, October, 1961.
0.3 g of shampoo was applied in each instance to 12.5 sq. in. of calf skin (equivalent to […] of shampoo per 90.2 sq. in. of human scalp) and a rich lather worked up for 2 minutes. The calf skin was then rinsed in running tap water for 30 seconds with vigorous message to remove all lather. The moist skin was then given a second lather identical to the first and again rinsed as before. After air drying, the calf skins were cut into 2.1 cm discs and placed on agar inoculated with P. Ovale. After 4 days incubation at 27°C, the zones of inhibition size were recorded.

dandruff = conditions: in words; background; cited from earlier work
[5] = Pityrosporum ovale, agar, 27°C, 4 days

Oc1ccc(Cl)cc1Sc1cc(Cl)ccc1O [2,2'-dihydroxy-5.5'-dichlorodiphenyl monosulfide]
MIC (P. Ovale [1]): > 1000 µg/mL

Sc1ccccn1 [2-mercaptopyridine]
MIC (P. Ovale [1]; [5]): > 1000 µg/mL

Sc1ccc2ccccc2n1 [2-mercaptoquinoline]
MIC (P. Ovale [1]; [5]): > 1000 µg/mL

O=c1[nH]c2cc(Cl)c(Br)cc2o1 [5-chloro-6-bromobenzoxazo-linone]
MIC (P. Ovale [1]; [5]): 1000 µg/mL (≈ 4.02 mM)

Oc1cccc2cccnc12 [8-Hydroxyquinoline]
MIC (P. Ovale [1]): 100 µg/mL (≈ 0.689 mM)

Oc1c(I)cc(I)c2cccnc12 [Diiodohydroxyquinoline]
MIC (P. Ovale [1]; [5]): 1000 µg/mL (≈ 2.52 mM)

Oc1c(Cl)cc(Cl)c(Cl)c1Cc1c(O)c(Cl)cc(Cl)c1Cl [Hexachlorophene]
MIC (P. Ovale [1]): > 1000 µg/mL

[O-][n+]1c(S)ccc2ccccc21 [Na MQNO, Sodium Complex Of 2-Mercapto-Quinoline-N-Oxide]
MIC (Aspergillus oryzae; ATCC10196, ATCC 10196, Mycological Agar, 27°C, ten fold dilutions, read-out: Minimum Inhibitory Concentration, Aspergillus oryzae): 10100 µg/mL | MIC (P. Ovale [1]; [5]): 50 to 60 µg/mL | MIC (Proteus vulgaris): 0.1 µg/mL | MIC (Staph. aureus; ATCC6538, ATCC 6538, Nutrient Agar, 37°C, ten fold dilutions, read-out: Minimum Inhibitory Concentration, Staph. aureus): 0.1 µg/mL

[O-][n+]1ccccc1S [Na PTO, sodium salt of pyridinethione-N-oxide]
antimicrobial spectrum [2]: broad-spectrum antimicrobial agents showing good activity at low concentrations against Gram-positive and negative bacteria, fungi and dermatophytes | MIC (Aspergillus oryzae; ATCC10196, read-out: Minimum Inhibitory Concentration, Aspergillus oryzae): 10100 µg/mL | MIC (P. Ovale [1]): 7 to 10 µg/mL | MIC (Staph. aureus; ATCC6538, read-out: Minimum Inhibitory Concentration, Staph. aureus): 0.1 µg/mL

Cc1cc(O)cc(C)c1Cl [P-chloro-m-xylenol]
MIC (P. Ovale [1]; [5]): 1000 µg/mL (≈ 6.39 mM)

O=C(Nc1ccc(Cl)c(Cl)c1)c1cc(Cl)cc(Cl)c1O [Tetrachloro salicyanilide]
Minimum Inhibitory Concentration (MIC) against P. Ovale (P. Ovale [1]; agar, 27°C, 4 days): 1000 PPM

Oc1c(Cl)cc(Cl)cc1Sc1cc(Cl)cc(Cl)c1O [Thio bis(dichlorophenol)]
Minimum Inhibitory Concentration (MIC) against P. Ovale (P. Ovale [1]; agar, 27°C, 4 days): > 1000 PPM

O=C(Nc1ccc(Br)cc1)c1cc(Br)cc(Br)c1O [Tribromo salicyanilide]
Minimum Inhibitory Concentration (MIC) against P. Ovale (P. Ovale [1]; agar, 27°C, 4 days): 1000 PPM

O=C(Nc1ccc(Cl)cc1)c1cc(Cl)cc(Cl)c1O [Trichloro salicyanilide]
Minimum Inhibitory Concentration (MIC) against P. Ovale (P. Ovale [1]; agar, 27°C, 4 days): > 1000 PPM

O=C(Nc1ccc(Cl)cc1)Nc1ccc(Cl)c(Cl)c1 [Trichlorocarbanilide]
Minimum Inhibitory Concentration (MIC) against P. Ovale (P. Ovale [1]; agar, 27°C, 4 days): > 1000 PPM

C=CCCCCCCCCC(=O)O [Undecylenic acid]
MIC (P. Ovale [1]): 1000 µg/mL (≈ 5.43 mM)

[O-][n+]1c(S)ccc2ccccc21.[Zn] [Zn MQNO, Zinc 2-mercaptoquinoline-N-oxide]
solubility relative to ZnPTO [3]: less soluble than ZnPTO | MIC (T. interdigitale): 10100 µg/mL | Zone of Inhibition Against P. Ovale - Calf Skin, 1 Application (P. Ovale [4]; listed as MONO): 0.5 and 1.5 and 1.0 | Zone of Inhibition Against P. Ovale - Calf Skin, 2 Applications (P. Ovale [4]; listed as MONO): 2.0 and 4.5 and 2.5

[O-][n+]1ccccc1[S-].[O-][n+]1ccccc1[S-].[Zn+2] [Zn PTO, zinc salt of pyridinethione-N-oxide]
antimicrobial spectrum [2]: broad-spectrum antimicrobial agents showing good activity at low concentrations against Gram-positive and negative bacteria, fungi and dermatophytes | Minimum Inhibitory Concentration, Aspergillus oryzae (Aspergillus oryzae; ATCC 10196, Mycological Agar, 27°C, ten fold dilutions): 10 100 PPM | Minimum Inhibitory Concentration (MIC) against P. Ovale (P. Ovale [1]; agar, 27°C, 4 days): 7-10 PPM | Zone of Inhibition Against P. Ovale - Calf Skin, 1 Application (P. Ovale [4]; listed as Zinc PTO): 4.5 and 4.0 and 5.0 | Zone of Inhibition Against P. Ovale - Calf Skin, 2 Applications (P. Ovale [4]; listed as Zinc PTO): 10.0 and 7.0 and 5.0

[S] [elemental sulfur]
anti-dandruff activity (prior art agents) (dandruff): extremely effective in the control of dandruff

N-alkyl-dimethyl-benzyl ammonium chloride
Minimum Inhibitory Concentration (MIC) against P. Ovale (P. Ovale [1]; agar, 27°C, 4 days): > 1000 PPM

N-alkyl-dimethyl-ethyl-benzyl ammonium cyclohexyl sulfamate
Minimum Inhibitory Concentration (MIC) against P. Ovale (P. Ovale [1]; agar, 27°C, 4 days): > 1000 PPM

Sodium salt of sulphosuccinate of undecylenic-monoalkylolamide
Minimum Inhibitory Concentration (MIC) against P. Ovale (P. Ovale [1]; agar, 27°C, 4 days): > 1000 PPM

Undecen-1-ol
Minimum Inhibitory Concentration (MIC) against P. Ovale (P. Ovale [1]; agar, 27°C, 4 days): > 1000 PPM

m-alkyl-dimethyl-ethyl-benzyl ammonium chloride
Minimum Inhibitory Concentration (MIC) against P. Ovale (P. Ovale [1]; agar, 27°C, 4 days): > 1000 PPM
